# From PubChem BioAssay (NCI)
#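 Cultured in 96-well plates, cells were exposed to test compound for 48 hours across five concentrations. At the GI50, growth is halved. TGI denotes the concentration required for complete inhibition of growth.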
# What was measured:
# Test in all cases: NCI anticancer screen, dose series, 48 h
# BT-549 breast = system: BT-549 breast
# MCF7 breast = system: MCF7 breast
# MDA-N = system: MDA-N
# DU-145 prostate = system: DU-145 prostate
# HOP-18 NSCLC = system: HOP-18 NSCLC
# XF 498 CNS = system: XF 498 CNS
# RXF-631 renal = system: RXF-631 renal
SMILES,TGI (BT-549 breast),TGI (MCF7 breast),TGI (MDA-N),TGI (DU-145 prostate),GI50 (BT-549 breast),GI50 (MCF7 breast),GI50 (DU-145 prostate),TGI (HOP-18 NSCLC),TGI (XF 498 CNS),TGI (RXF-631 renal)
CC(=O)On1c(-c2ccccc2-c2nc3ccccc3n2OC(C)=O)nc2ccccc21,> 100 µM,> 100 µM,> 100 µM,> 100 µM,,,,,,
COc1ccc2c(c1)CC[C@H](O)/C2=C/c1cc(OC)c(OC)c(OC)c1,17.6 µM,> 100 µM,,> 100 µM,0.147 µM,0.0379 µM,0.156 µM,,,
COc1nc(N)nc2c1ncn2C1OC(CO)C(O)C1O (stereo unspecified),> 5000 µM,> 5000 µM,,> 5000 µM,> 5000 µM,3800 µM,> 5000 µM,,,
COc1ccc(OC)c(-c2cc(-c3ccc(Cl)cc3)nn2-c2ccc(S(=O)(=O)NC(C)=O)cc2)c1,14.7 µM,> 100 µM,,,4.26 µM,26.4 µM,,,,
O=C1OC(O)C(Oc2c(Cl)cccc2Cl)=C1Cl (stereo unspecified),,,,,,,,42.4 µM,,
CCn1c(-c2cc3ccccc3cc2O)nn(C(=O)c2c(Cl)cccc2Cl)c1=S,36.7 µM,> 50 µM,,> 50 µM,15.6 µM,> 50 µM,41.1 µM,,,
CN/N=C(\C)C(CN(C)C)C(c1ccccc1)c1c(O)c2ccccc2oc1=O (stereo unspecified),> 100 µM,> 100 µM,> 100 µM,> 100 µM,,,,,,
O=C1/C(=C\c2ccccn2)c2ccccc2N1c1c(Cl)cccc1Cl,4.88 µM,14.3 µM,,3.95 µM,2.21 µM,2.41 µM,1.94 µM,,,
COC(=O)C1[C@H](c2cc(OC)c(OC)c(OC)c2)OC(=O)C1(C(=O)OC)C(=O)c1ccc2c(c1)OCO2 (stereo partly specified),,,,,,,,,> 100 µM,
N#CCN/C=C\C(=O)c1ccc(Cl)cc1,,> 100 µM,,> 100 µM,,32.5 µM,41.4 µM,,,
CCOc1cccc2ccc[n+](CC)c12,,,,,,,,> 100 µM,> 100 µM,> 100 µM
COc1ccc(/C=N\Nc2ccc([N+](=O)[O-])cn2)cc1OC,> 100 µM,,,> 100 µM,> 100 µM,,> 100 µM,,,
Cc1cc(CC(C)CC(C)(C)C)n(O)c(=O)c1 (stereo unspecified) (tested in a mixture with another compound),3.25 µM,> 43 µM,,> 41.3 µM,0.351 µM,0.401 µM,0.505 µM,,,
CC(C)(C)C1CCC2c3c([nH]c4ccccc34)C3C(=O)N(c4ccccc4)C(=O)C3C2C1 (stereo unspecified),,,,,,,,9.73 µM,3 µM,
Cn1c(=O)c2nc(-c3ccc(Cl)cc3)oc2n(C)c1=O,,,,,,,,> 100 µM,> 100 µM,
O=Cc1ccc(-c2ccc(-c3nc4ccccc4o3)cc2)o1,> 100 µM,> 100 µM,,> 100 µM,35.4 µM,14.8 µM,50.1 µM,,,
O=c1c2cccc3cccc(c4n1CCN=4)c32,,,,,,,,> 100 µM,> 100 µM,

SMILES,TGI (BT-549 breast),TGI (MCF7 breast),TGI (MDA-N),TGI (DU-145 prostate),GI50 (BT-549 breast),GI50 (MCF7 breast),GI50 (DU-145 prostate),TGI (HOP-18 NSCLC),TGI (XF 498 CNS),TGI (RXF-631 renal)
Cc1ccc(C)c(C2NC(=O)c3ccccc3N2)c1 (stereo unspecified),> 71.6 µM,> 84.5 µM,0.319 µM,> 50.9 µM,,,,,,
CCOC(=N)/C(=C1\OC(N)=C(c2ccc(Cl)cc2)C1=O)c1ccc(Cl)cc1,,,,,,,,72.6 µM,23.6 µM,80.4 µM
N#CC1=C(N)NC(N2CCOCC2)=NC12Nc1ccccc1N2,> 100 µM,,,> 100 µM,32.6 µM,,63.6 µM,,,
Cc1cc(C)c(Cn2cnc3c(Cl)ncnc32)c(C)c1CCl,> 100 µM,> 100 µM,,,> 100 µM,30.5 µM,,,,
C[N+](C)(C)CC(=O)N/N=C(\C(=O)NC1=C(Cl)C(=O)c2ccccc2C1=O)C(C#N)c1csc(-c2ccc([N+](=O)[O-])cc2)n1 (stereo unspecified),,,,,,,,> 100 µM,> 100 µM,> 100 µM
O=S1Nc2c(Cl)cc(Cl)c3c(Cl)cc(Cl)c(c23)N1,,,,,,,,> 100 µM,,> 100 µM
CN1C(=O)N[C@H]2[C@@H]3NC(=O)c4ccc(Br)n4[C@@H]3C[C@]21O,0.405 µM,1.08 µM,,2.8 µM,0.0739 µM,0.0281 µM,0.121 µM,,,
O=c1c(Cl)c(Cl)c(=O)c2sc3cc(Cl)ccc3[nH]c1=2,,> 100 µM,,> 100 µM,,,,,,
COc1cc(-c2nc(-c3nc4ccccc4[nH]3)cc3c2[nH]c2ccccc23)cc(OC)c1OC,> 100 µM,> 100 µM,,> 100 µM,5.48 µM,4.11 µM,6.27 µM,,,
NC(=O)c1cccc(Nc2nccc(Nc3cccc4[nH]ncc34)n2)c1,> 25 µM,> 25 µM,,> 25 µM,9.4 µM,9.49 µM,9.7 µM,,,
CC(=O)OC1CC2C(C)(C)C(=O)C=C[C@]2(C)C2CCC3(C)C(=CC(=O)C3c3ccoc3)[C@]12C (stereo partly specified),,,,,,,,33.8 µM,42.8 µM,
CN(Cc1cc(Cl)cc(Cl)c1)CC(C(=O)c1ccccc1)c1ccccc1 (stereo unspecified),17.6 µM,> 44.1 µM,,20.9 µM,,,,,,
COC(=O)c1cc(O)c2c(c1C(=O)OC)C[C@H]1[C@@H]3CC=C4C[C@@H](O)CC[C@]4(C)[C@H]3CC[C@]21C,6.98 µM,12.8 µM,,16.1 µM,2.29 µM,3.15 µM,3.89 µM,,,
CCN(CC)CCCC(C)N=C(C1=C(C(=NC(C)CCCN(CC)CC)c2cccc(OC)c2)C(=O)NC1=O)c1cccc(OC)c1 (stereo unspecified),8.44 µM,3.51 µM,,5.03 µM,2.24 µM,1.25 µM,1.54 µM,,,
COc1cc(CNc2ccccc2C(=O)N2CCN(C(=O)c3cc(-c4cc(OC)c(OC)c(OC)c4)n4nc(-c5ccccc5)cc4n3)CC2)cc(OC)c1OC,49.1 µM,> 100 µM,,> 100 µM,3.27 µM,3.01 µM,3.96 µM,,,
OCC(O)c1nc2ccc3[nH]ncc3c2c2c1CCCC2 (stereo unspecified),2.2 µM,> 50 µM,,> 50 µM,0.934 µM,0.931 µM,1.59 µM,,,
